From patent US12559629B2, “Method for preparing a stable Trypan Blue solution” (BECKMAN COULTER, INC., priority 2020, dated 2026)
Like-named read-outs stand apart in the source and are kept apart here.

Legend:
[1] = Preliminary experiments: salt-induced precipitation/aggregation of 0.2% w/v aqueous Trypan Blue; type: physicochemical
[2] = cited from earlier work
[3] = Dye precipitation on mixing Nominal 0.4% Trypan Blue in NaCl with polycationic compounds; type: physicochemical; conditions: Nominal 0.4% Trypan Blue in NaCl (0.20 mL) mixed with 0.5 mg mL^−1 compound in PBS (0.20 mL)
Description: In the present study, Trypan Blue was mixed with various cell culture medium containing polycationic compounds. Nominal 0.4% Trypan Blue in NaCl was mixed with PBS (negative control), kanamycin (a positively charged aminoglycoside), and spermidine (a positively charged polyamine). […] This effect can be reasonably generalized to other polycationic compounds, particularly those containing amine functional groups.

[Cl-].[K+] [potassium chloride]
Dye aggregation of Trypan Blue in presence of salt ([1]; 150 mM concentrations): produced dye aggregation

Cc1cc(-c2ccc(/N=N/c3ccc4c(S(=O)(=O)O)cc(S(=O)(=O)O)c(N)c4c3O)c(C)c2)ccc1/N=N/c1ccc2c(S(=O)(=O)O)cc(S(=O)(=O)O)c(N)c2c1O [Evans Blue]
Solubility of precipitate with neomycin ([2]; pH 8.5): insoluble
Solubility of precipitate with neomycin ([2]; pH 10.4): dissolves

[Cl-].[Li+] [lithium chloride]
Dye aggregation of Trypan Blue in presence of salt ([1]; concentrations as high as 600 mM): did not promote dye aggregation

O=P([O-])(O)O.[Na+] [monosodium phosphate]
Dye aggregation of Trypan Blue in presence of salt ([1]; 150 mM sodium concentrations): promoted dye aggregation

NCCCCNCCCN [spermidine]
Precipitation of Trypan Blue [3]: trigger immediate precipitation of Trypan Blue

Cc1cc(-c2ccc(/N=N/c3c(S(=O)(=O)O)cc4cc(S(=O)(=O)O)cc(N)c4c3O)c(C)c2)ccc1/N=N/c1c(S(=O)(=O)O)cc2cc(S(=O)(=O)O)cc(N)c2c1O [Trypan Blue]
Formation of red colored dye aggregates ([1]; 0.2% w/v in deionized water, two weeks at 4° C.): did not form red colored dye aggregates

[Cl-].[Na+] [sodium chloride]
Precipitation of 0.2% w/v Trypan Blue ([1]; 150 mM salt, storage for 16 hours at 4° C.): exhibited precipitation
Precipitation of the dye from 0.2% w/v aqueous solution of Trypan Blue ([1]; addition of 250 mM salt): rapid precipitation of the dye

[Cl-].[Cs+] [cesium chloride]
Dye aggregation of Trypan Blue in presence of salt ([1]; 150 mM concentrations): produced dye aggregation

O=S([O-])[O-].[Na+].[Na+] [sodium sulfite]
Dye aggregation of Trypan Blue in presence of salt ([1]; 150 mM sodium concentrations): promoted dye aggregation
